Test results: US11491135B2 (priority 2019, dated 2022)
Where two headings read alike, the source gives them in different places.

Assays:
[1] = tested on: Clostridium perfringens ATCC13124; format: in vivo, Arbor Acre broiler chickens; conditions: 25 mg/kg orally every 12 h, 5 days
[2] = tested on: Clostridium perfringens ATCC13124; format: cell-based; conditions: 0.7% BHIA plates, anaerobic 37° C., 48 h
[3] = tested on: Clostridium perfringens; format: cell-based; conditions: 4, 8, 16 and 32 μg/ml, 30° C., 5 days, crystal violet absorbance at 570 nm

## COc1c(O)cc2occ(-c3ccc(O)cc3)c(=O)c2c1O [tectorigenin]
[1]
  daily weight gain of broiler chickens, treatment group vs infected group: significantly higher than that of the infected group
  histopathological injury of small intestine (HE staining): significantly alleviated
[1]; chickens sacrificed at 21-day-old
  degree of pathological changes of the necrotic enteritis in the intestinal tract (intestinal lesion scoring, 0-6): significantly reduced
[2]; 8 μg/ml tectorigenin
  gliding motility of Clostridium perfringens on BHIA: significantly inhibit
[2]; 32 μg/ml tectorigenin
  gliding motility of Clostridium perfringens on BHIA: significantly inhibit
[3]
  biofilm formation of Clostridium perfringens: effectively inhibit
